US20110160308A1, “Use of Monoamine Oxidase Inhibitors to Treat Outer Retina Disorders” (ALCON RESEARCH, LTD., priority 2006, published 2011)
Entries after “also recorded” stand apart in the source; their conditions may differ.

Columns and labels:
[1] = target: T1, MAO-A (Rattus norvegicus, UniProt P21396); test: In vitro MAO-A enzyme activity assay (radioenzymatic, 14C-serotonin) in rat brain mitochondria; format: biochemical
T1 construct: of the invention in rat brain mitochondria; from tissue; host or cells: rat brain, crude mitochondrial fraction (male Wistar rats)
T1 sequence (P21396 1-526): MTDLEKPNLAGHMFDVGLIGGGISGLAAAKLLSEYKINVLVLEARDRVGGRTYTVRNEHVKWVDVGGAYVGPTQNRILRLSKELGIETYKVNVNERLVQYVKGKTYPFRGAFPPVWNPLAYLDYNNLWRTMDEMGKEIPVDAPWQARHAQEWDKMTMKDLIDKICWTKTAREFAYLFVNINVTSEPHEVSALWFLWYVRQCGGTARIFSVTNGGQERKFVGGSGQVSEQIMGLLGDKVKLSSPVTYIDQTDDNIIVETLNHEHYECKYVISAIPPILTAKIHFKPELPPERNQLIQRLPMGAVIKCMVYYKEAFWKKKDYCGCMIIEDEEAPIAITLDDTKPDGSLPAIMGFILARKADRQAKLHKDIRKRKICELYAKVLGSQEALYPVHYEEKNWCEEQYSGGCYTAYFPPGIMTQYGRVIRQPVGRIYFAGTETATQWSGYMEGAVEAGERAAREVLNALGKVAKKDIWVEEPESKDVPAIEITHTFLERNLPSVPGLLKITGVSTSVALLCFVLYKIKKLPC
Protocol: (§1) In Vitro MAO-A and MAO-B Enzyme Activities Assay
(§2) —Membrane Preparations (Crude Mitochondrial Fraction)
(§3) The crude homogenate was centrifuged at 2220 rpm for 10 minutes at +4° C. and the supernatant recovered. The pellet was homogenized and centrifuged again. The two supernatants were pooled and centrifuged at 9250 rpm for 10 minutes. The pellet was resuspended in fresh buffer and centrifuged at 11250 rpm for 10 minutes at +4° C. The resulting pellet was stored at −80° C.
(§4) —In Vitro Enzyme Activities Assay
(§5) The enzyme activities were assessed with a radioenzymatic assay using the substrates ^14C-serotonin (5-HT) and ^14C-phenylethylamine (PEA) for MAO-A and MAO-B, respectively.
(§6) The mitochondrial pellet (500 μg protein) was resuspended in 0.1 M phosphate buffer (pH 7.4). 500 μl of the suspension were added to a 50 μl solution of the test compound or buffer, and incubated for 30 min at 37° C. (preincubation) then the substrate (50 μl) was added. The incubation was carried out for 30 minutes at 37° C. (^14C-5-HT, 5 μM) or for 10 minutes at 37° C. (^14C-PEA, 0.5 μM).
(§7) After centrifugation, the deaminated metabolites were extracted with 3 ml of diethyl ether (5-HT) or toluene (PEA) and the radioactive organic phase was measured by liquid scintillation spectrometry at 90% efficiency. The amount of neutral and/or acidic metabolites formed as a result of MAO activity was obtained by measuring the radioactivity of the eluate.
(§8) The activity of MAO in the sample, corresponding to a percentage of radioactivity compared with the control activity in the absence of the inhibitor, was expressed as nmoles of substrate transformed/mg protein/min.
(§9) The drug inhibition curves were obtained from at least eight different concentration points, each in duplicate (10^−10 to 10^−5 M).

[2] = target: T2, MAO-B (Rattus norvegicus, UniProt P19643); test: In vitro MAO-B enzyme activity assay (radioenzymatic, 14C-phenylethylamine) in rat brain mitochondria; format: biochemical
T2 construct: of the invention in rat brain mitochondria; from tissue; host or cells: rat brain, crude mitochondrial fraction (male Wistar rats)
T2 sequence (P19643 1-520): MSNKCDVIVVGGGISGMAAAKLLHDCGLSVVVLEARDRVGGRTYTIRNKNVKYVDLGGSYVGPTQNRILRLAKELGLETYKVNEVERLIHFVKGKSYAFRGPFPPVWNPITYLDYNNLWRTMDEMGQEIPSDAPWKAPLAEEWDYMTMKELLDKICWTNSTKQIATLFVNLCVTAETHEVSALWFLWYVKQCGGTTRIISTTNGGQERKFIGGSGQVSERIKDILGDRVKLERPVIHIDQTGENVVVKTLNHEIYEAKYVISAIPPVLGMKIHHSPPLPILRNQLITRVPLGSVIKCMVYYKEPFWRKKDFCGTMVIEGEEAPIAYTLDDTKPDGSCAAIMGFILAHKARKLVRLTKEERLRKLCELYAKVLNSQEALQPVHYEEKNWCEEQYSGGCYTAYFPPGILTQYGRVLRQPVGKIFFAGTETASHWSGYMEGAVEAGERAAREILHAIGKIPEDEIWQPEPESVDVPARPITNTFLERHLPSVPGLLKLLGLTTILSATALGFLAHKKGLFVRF
Protocol: as §1, §2, §3, §4, §5, §6, §7, §8, §9

[3] = test system: mouse closed head injury model; conditions: 1 mg/kg; cited from earlier work
[4] = test system: rat photo-oxidative induced retinopathy model; test: Rat photo-oxidative induced retinopathy model (blue-light exposure; ERG and retinal morphology); format: in vivo; conditions: for Maximum ERG a-wave responses, % of normal: 5 days after 6-hour blue-light exposure
Protocol: Neuroprotective Activity of MAO Inhibitors in the Rat Photo-Oxidative Induced Retinopathy Model
Prevention of Photo-oxidative injury with Safinamide: The efficacy of Safinamide, a short acting MAO-B inhibitor, to protect retinal cells against the induction of photochemical lesions by blue-light exposure was assessed by measuring light-induced changes in retinal functioning (electroretinogram (ERG)) and evaluating retinal morphology changes.
Subjects. Male Sprague Dawley rats were randomly assigned to drug or vehicle experimental groups. Rats receiving vehicle (N=15) or drug treatment (Safinamide: 5 mg/kg, N=10; 15 mg/kg, N=10; 30 mg/kg, N=10; and 60 mg/kg, N=9) were pre-dosed (IP) at 48, 24 and 0 hours prior to a 6-hour light exposure (spectrally filtered blue light (˜220 fc)) and 24 and 48 hours after light exposure. Control rats were housed in their home cage under normal cyclic light exposure. Control rats were not dosed with either vehicle or drug.
Retinal Function Assessment. The ERG is a non-invasive clinical measurement of the electrical response of the eye to a flash of light. The a-wave and b-wave are two components of the ERG that are diagnostic of retinal function. The a-wave reflects outer retina function and is generated by interactions between photoreceptor and RPE while the b-wave reflects inner retina function, particularly on-bipolar cells. […] Changes in the a-wave amplitude or latency are diagnostic of outer retina pathology. The ERG was recorded after a five day recovery period from dark-adapted anesthetized rats (ketamine-HCl, 75 mg/Kg; xylazine, 6 mg/Kg). The eye's electrical response to a flash of light was elicited by viewing a ganzfeld. ERGs to a series of light flashes increasing in intensity were digitized to analyze temporal characteristics of the waveform and response voltage-log intensity relationship.
Light Microscopic Assessment of Retinal Lesions. Ocular tissues were fixed in a mixture of paraformaldehyde and glutaraldehyde, dehydrated in an ascending ethanol series, embedded in JB-4 plastic resin, and 1 to 1.5-micron thick sections were analyzed using a quantitative computer image analysis system attached to the microscope. Retinal Pigment Epithelium (RPE), Outer Nuclear Layer (ONL) and Inner to Nuclear Layer (INL) thickness as well as the length of inner segments (IS), where mitochondria are located, and outer segments (OS), which contain the light sensitive photopigment, were measured to assess outer retina protection.

[5] = test system: rat photo-oxidative induced retinopathy model; test: as above; format: in vivo; conditions: 15 to 60 mg/kg IP, 1-month recovery period
[6] = test system: light-induced functional or morphological changes; test: Light damage paradigms used by the present inventors; format: in vivo
[7] = 15 and 60 mg/kg, light microscopy

Compound | IC50 [1] [nM] | IC50 [2] [nM] | also measured
CN(CC(N)=O)Cc1ccc(OCc2cccc(Cl)c2)cc1 [2-{[4-(3-Chloro-benzyloxy)-benzyl]-methyl-amino}-acetamide] | 50000 | 40 | 
NC(=O)[C@@H](CO)NCc1ccc(OCc2cccc(Cl)c2)cc1 [(R)-2-[4-(3-Chloro-benzyloxy)-benzylamino]-3-hydroxy-propionamide] | > 100000 | 110 | 
C[C@H](NCc1ccc(OCC2CCCCC2)cc1)C(N)=O [(S)-2-(4-Cyclohexylmethoxy-benzylamino)-propionamide] | 301000 | 30 | 
C[C@H](NCc1ccc(OCc2ccccc2F)cc1)C(N)=O [(S)-2-[4-(2-Fluoro-benzyloxy)-benzylamino]-propionamide] | 228000 | 180 | 
NC(=O)[C@H](CO)NCc1ccc(OCc2cccc(Cl)c2)cc1 [(S)-2-[4-(3-Chloro-benzyloxy)-benzylamino]-3-hydroxy-propionamide] | 84000 | 40 | 
C[C@H](NCc1ccc(OCc2cccc(Cl)c2)cc1)C(N)=O [(S)-2-[4-(3-Chloro-benzyloxy)-benzylamino]-propionamide] | 114000 | 30 | 
NC(=O)[C@H](CO)NCc1ccc(OCc2cccc(F)c2)cc1 [(S)-2-[4-(3-Fluoro-benzyloxy)-benzylamino]-3-hydroxy-propionamide] |  | 140 | 
C[C@H](NCc1ccc(OCc2ccc(F)cc2)cc1)C(N)=O [(S)-2-[4-(4-Fluoro-benzyloxy)-benzylamino]-propionamide] | 93000 | 60 | 
C[C@@H](C(N)=O)N(C)Cc1ccc(OCc2cccc(Cl)c2)cc1 [(S)-2-{[4-(3-Chloro-benzyloxy)-benzyl]-methyl-amino}-propionamide] | 82000 | 60 | 
C#CCN[C@@H]1CCc2ccccc21 [Rasagiline] |  |  | cerebral edema reduction [3]: 40-50%
C[C@H](NCc1ccc(OCc2cccc(F)c2)cc1)C(N)=O [Safinamide, (S)-2-[4-(3-Fluoro-benzyloxy)-benzylamino]-propionamide] | 584000 | 90 | Maximum ERG a-wave responses, % of normal ([4]; 5 mg/kg IP): 52 % of normal; Maximum ERG a-wave responses, % of normal ([4]; 15 mg/kg IP): greater than 70 % of normal; Maximum ERG a-wave responses, % of normal ([4]; 30 mg/kg IP): greater than 70 % of normal; Retinal responses (ERG) compared to control rats ([4]; 60 mg/kg IP, 5 days after blue-light exposure): not significantly diminished compared to control rats; photoreceptor segment length compared to vehicle-dosed rats ([4]; 60 mg/kg, light microscopy): significantly longer; retinal lesions ([4]; 60 mg/kg, light microscopy): devoid of any significant retinal lesions; retinal lesions ([4]; 60 mg/kg, light microscopy, listed as safinamide): devoid of significant retinal lesions; ERG (retinal function) protection compared to vehicle-dosed rats ([4]; 5-60 mg/kg IP, 5-day recovery period): Significant dose-dependent protection of retinal function; also recorded: significant ERG protection; ONL thickness compared to vehicle-dosed rats [4, 7]: significantly thicker; RPE thickness compared to vehicle-dosed rats [4, 7]: thicker RPE compared to vehicle-dosed rats; reduction in retinal lesions across doses ([4]; light microscopy, all doses): Dose-dependent reduction in retinal lesions; ERG a- and b-wave function after 1-month recovery [5]: not significantly different from normal; also recorded: normal ERG a- and b-wave function; ERG a- and b-wave function after 1-month recovery ([5]; listed as safinamide): significant and complete retinal function protection
Fc1ccc(C(c2ccc(F)cc2)N2CCN(C/C=C/c3ccccc3)CC2)cc1 [flunarizine] |  |  | preventing light-induced functional or morphological changes [6]: moderately effective
COCCOC(=O)C1=C(C)NC(C)=C(C(=O)OC(C)C)C1c1cccc([N+](=O)[O-])c1 (stereo not drawn) [nimodipine] |  |  | preventing light-induced functional or morphological changes [6]: no effect
Cc1c(C)c2c(c(C)c1O)CC[C@@](C)(CCC[C@H](C)CCC[C@H](C)CCCC(C)C)O2 [α-tocopherol] |  |  | preventing light-induced functional or morphological changes [6]: ineffective
